The text below walks through data of patent publication US8883963B2 (Cadila Healthcare Limited, priority 2007, dated 2014).

Structures are written as SMILES. Non-standard residues stand in square brackets, D forms with d. Residues, ends and D or L forms follow the SMILES beside them. ξ: configuration not given here. *: point of attachment. X9 = CCc1cc(OC)ccc1-c1ccc(CC(NC(=S)[C@H](CC(=O)O)N*)C(=S)NC(CCCc2ccccc2F)C(N)=O)cc1; X8 = CCc1cc(OC)ccc1-c1ccc(CC(NC(=S)[C@H](CC(=O)O)N*)C(=S)NC(CCCc2ccccc2)C(N)=O)cc1; X4 = CCc1cc(OC)ccc1-c1ccc(CC(CNC(CCCc2ccccc2F)C(N)=O)N*)cc1; X7 = CCc1cc(OC)ccc1-c1ccc(CC(CNC(CCCc2ccccc2)C(N)=O)N*)cc1; ξαMePhe(2-F) = CC(N)(Cc1ccccc1F)C(=O)O; aThr = C[C@H](O)[C@H](N)C(=O)O; Aib = CC(C)(N)C(=O)O; Moc = COC(=O)*

Common to all, as to type: cell-based
Assay [1] relates to RIN5F (Rat Insulinoma) cells. Description: In vitro glucose-dependent insulin secretion (RIN5F cell assay screening protocol). The settings on record: 16.7 mM glucose load. The method, then:
RIN5F (Rat Insulinoma) cells were cultured in RPMI 1640 medium supplemented with sodium pyruvate (1 mM) HEPES and Glucose (4.5 g/L) in a humidified incubator (5% CO2), at 37° C. After trypsinization, RIN5F cells were seeded at a concentration of 0.2×10^6 cells per well, in 12 well plates.
The buffer was replaced after 40 min. and the cells were incubated (37° C.) with the test peptidomimetics, at different concentration, for 30 min., both in the presence (16.7 mM) and absence (0 mM) of glucose load. The supernatant was collected and the insulin amount was measured by ultra sensitive Rat insulin ELISA kit (Crystal Chem, IL). The protein was estimated in the supernatant using Bicinchoninic Acid kit, according to the manufacturer's protocol (Sigma Aldrich, MO). The total insulin content obtained in Pico-gram (pg) was divided with the total protein (μg) in order to normalize for differences in cell density between wells.

Assay [2] concerns the target T1, Human GLP-1 receptor (Homo sapiens, UniProt P43220).
T1 construct: The full-length cDNA was cloned in pcDNA3.1(+); expressed in transfected cells
Put plainly: In vitro Human GLP-1 R agonist activity (cyclic AMP determination) in CHO/human GLP1R cells. The method, then:
The novel peptidomimetics were screened for Human GLP-1 receptor (HGLP-1 R) agonist activity (in vitro), using the cAMP cell-based assay, in stably transfected CHO/human GLP1R cells. […] CHO cells were grown in Ham's F12 medium containing L-Glutamine (2 mM), HEPES (25 mM), NaHCO3 (1.1 g/L) and supplemented with NewBorn Calf Serum (NBCS; 10%), Penicillin (50 U/ml (v/v)) and Streptomycin (50 ug/ml (v/v)). Cells were split every 3 days 1:8.
The cDNA encoding the human GLP-1 receptor was isolated by RT-PCR according to standard protocol. The full-length cDNA was cloned in pcDNA3.1(+). […] Clones expressing the receptor were generated by G418 (800 μg/ml active, Sigma) selection. The stable clones were thereafter maintained at 500 ug/ml (G418). The selected clone was used between passages 9-25 for cAMP assays.
The trypsin was inactivated using Ham's F12 medium containing 10% NBCS and the cells were suspended in 2 ml of complete medium. […] The medium was aspirated off from the 12 well plate and the cells were washed once using Ham's F12 (plain). […] The cells were incubated with the test compounds for 30 min in humidified atmosphere and 37° C. After the incubation, the medium was removed and cells were washed once with plain Ham's F12. Subsequently, the cells were lysed by adding 500 ul of ice cold 0.1 N HCl to each well and shaking for 30 minutes at 200 rpm. The cells were then scrapped, the lysate was collected in micro centrifuge tubes and centrifuged at 12000 rpm for 10 min to remove the debris. 300 ul of supernatant from each micro-centrifuge tube was then removed into a glass tube and dried under N2 for 30 min, for cAMP estimation. The total cAMP was estimated from the sample according to the manufacturer's protocol using Cyclic AMP immunoassay kit (R&D systems, Minneapolis. MN). The remaining supernatant is used to determine the protein concentration using micro BCA (Sigma). Data is calculated as percent of control (Vehicle: water) and expressed as Mean±SD.

In assay [3] the target is T2, human glucagon receptor (Homo sapiens, UniProt P47871).
T2 construct: The full-length cDNA was cloned in pcDNA3.1 (Invitrogen); expressed in transfected cells
Description: In vitro human glucagon antagonist activity (inhibition of cAMP production) in CHO/human glucagon R cells. The settings on record: with saturated concentration of glucagon peptide. The method, then:
The CHO-K1 cells (CRL 9618) were obtained from American Type Culture Collection (Rockville, Md.). CHO cells were grown in Ham's F12 medium containing L-Glutamine (2 mM), HEPES (25 mM), NaHCO3 (1.1 g/L) and supplemented with newborn Calf Serum (NBCS; 10%), Penicillin (50 U/ml (v/v)) and Streptomycin (50 ug/ml (v/v)). Cells were split every 3 days 1:8.
The full-length cDNA was cloned in pcDNA3.1 (Invitrogen). […] Clones expressing the receptor were generated by G418 (800 μg/ml active, Sigma) selection. The stable clones were thereafter maintained at 500 ug/ml (G418). The selected clone was used between passages 9-25 for cAMP assays.
The cells were trypsinized using 2 ml of TPVG (0.25% trypsin, 0.53 mM EDTA, 1.38-mM glucose). The trypsin was inactivated using Ham's F12 medium containing 10% NBCS and the cells were suspended in 2 ml of complete medium. […] The medium was aspirated off from the 12 well plate and the cells were washed once using Ham's F12 (plain). The cells were incubated at 37° C. with 500 ul of Ham's F12+1% BSA+0.125 mM RO-20 for 30 min. […] After the incubation, the medium was removed and cells were washed once with plain Ham's F12. Subsequently, the cells were lysed by adding 500 ul of ice cold 0.1 N HCl to each well and shaking for 30 minutes at 200 rpm. The cells were then scrapped, the lysate was collected in micro centrifuge tubes and centrifuged at 12000 rpm for 10 min to remove the debris. 300 ul of supernatant from each micro-centrifuge tube was then removed into a glass tube and dried under N2 for 30 min, for cAMP estimation. The total cAMP was estimated from the sample according to the manufacturer's protocol using Cyclic AMP immunoassay kit (R&D systems, Minneapolis. MN). The remaining supernatant is used to determine the protein concentration using micro BCA (Sigma). Data is calculated as percent of control (Vehicle: water) and expressed as Mean+SD.
For orientation: cAMP levels reflect the balance of adenylyl cyclase and phosphodiesterase activity.

T2 sequence (P47871 26-477): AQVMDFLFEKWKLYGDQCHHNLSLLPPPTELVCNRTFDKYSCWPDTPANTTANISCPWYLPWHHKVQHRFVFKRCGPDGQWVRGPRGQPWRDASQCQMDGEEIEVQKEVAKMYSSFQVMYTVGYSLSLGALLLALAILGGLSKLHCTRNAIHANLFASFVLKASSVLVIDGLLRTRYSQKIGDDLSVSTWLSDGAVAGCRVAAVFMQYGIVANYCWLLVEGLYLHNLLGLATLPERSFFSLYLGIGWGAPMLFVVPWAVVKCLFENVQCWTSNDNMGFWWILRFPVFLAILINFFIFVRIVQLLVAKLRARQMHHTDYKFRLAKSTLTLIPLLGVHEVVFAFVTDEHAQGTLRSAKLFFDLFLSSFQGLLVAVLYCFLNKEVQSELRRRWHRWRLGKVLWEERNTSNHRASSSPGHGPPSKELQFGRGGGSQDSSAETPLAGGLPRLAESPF
T1 sequence (P43220 24-463): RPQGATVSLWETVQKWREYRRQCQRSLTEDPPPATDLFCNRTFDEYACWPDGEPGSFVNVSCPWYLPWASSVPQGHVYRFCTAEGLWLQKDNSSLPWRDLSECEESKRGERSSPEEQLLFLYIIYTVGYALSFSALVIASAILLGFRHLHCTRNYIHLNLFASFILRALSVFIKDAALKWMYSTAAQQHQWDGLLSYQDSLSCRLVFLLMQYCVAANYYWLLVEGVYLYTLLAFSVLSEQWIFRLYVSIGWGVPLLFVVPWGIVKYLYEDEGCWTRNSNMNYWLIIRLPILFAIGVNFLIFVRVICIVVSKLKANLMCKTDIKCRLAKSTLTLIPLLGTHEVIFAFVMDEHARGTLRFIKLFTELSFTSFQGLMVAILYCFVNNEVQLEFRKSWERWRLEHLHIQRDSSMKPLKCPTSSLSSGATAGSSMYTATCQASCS

In the case of `CCc1cc(OC)ccc1-c1ccc(CC(NC(=O)[C@H](CC(=O)O)NC(=O)[C@H](CO)NC(=O)[C@@H](NC(=O)C(C)(Cc2ccccc2F)NC(=O)[C@@H](NC(=O)CNC(=O)[C@H](CCC(N)=O)NC(=O)C(C)(C)NC(=O)[C@@H](N)Cc2c[nH]cn2)[C@@H](C)O)[C@@H](C)O)C(=O)NC(CCCc2cccc(Cl)c2)C(N)=O)cc1` (single isomer, unassigned) [compound 39], the Insulin secretion in assay [1] (0.1 nM test compd.) worked out at 11.1 ± 0.12 pg/µg/h; in assay [1] (1 nM test compd.) it was 13.1 ± 0.13 pg/µg/h; in assay [1] (10 nM test compd.), 19.0 ± 0.16 pg/µg/h.
For `CCc1cc(OC)ccc1-c1ccc(CC(CNC(CCCc2ccccc2F)C(N)=O)NC[C@H](CC(=O)O)NC(=O)[C@H](CO)NC(=O)[C@@H](NC(=O)C(C)(Cc2ccccc2F)NC(=O)[C@@H](NC(=O)CNC(=O)[C@H](CCC(N)=O)NC(=O)C(C)(C)NC(=O)[C@H](Cc2c[nH]cn2)NC(=O)OC)[C@@H](C)O)[C@@H](C)O)cc1` (single isomer, unassigned) [compound 196], the “Human GLP-1 R activity (cAMP release), % activity with respect to control” value in assay [2] (1 nM test compound) amounted to 39 ± 0.10%; in assay [2] (10 nM test compound) it was 81 ± 0.08%; in assay [2] (100 nM test compound), 89 ± 0.09%; in assay [2] (1 μM test compound), 96 ± 0.11%; in assay [2] (10 μM test compound), 99 ± 0.16%.
As for `CCc1cc(OC)ccc1-c1ccc(CC(NC(=O)[C@H](CC(=O)O)NC(=O)[C@H](CO)NC(=O)[C@@H](NC(=O)C(C)(Cc2ccccc2F)NC(=O)[C@@H](NC(=O)CNC(=O)[C@H](CC(C(F)(F)F)C(F)(F)F)NC(=O)C(C)(C)NC(=O)[C@@H](N)Cc2c[nH]cn2)[C@H](C)O)[C@H](C)O)C(=O)NC(CCCc2ccccc2)C(N)=O)cc1` (single isomer, unassigned) [compound 228], the “Human GLP-1 R activity (cAMP release), % activity with respect to control” value in assay [2] (1 nM test compound) is 99 ± 0.11%; in assay [2] (10 nM test compound), 99 ± 0.13%; in assay [2] (100 nM test compound), 99 ± 0.16%; in assay [2] (1 μM test compound), 99 ± 0.06%; in assay [2] (10 μM test compound) it was 99 ± 0.10%.
Turning to `CCc1cc(OC)ccc1-c1ccc(CC(NC(=S)[C@H](CC(=O)O)NC(=O)[C@H](CO)NC(=O)[C@@H](NC(=O)C(C)(Cc2ccccc2F)NC(=O)[C@@H](NC(=O)CNC(=O)[C@H](CCC(N)=O)NC(=O)C(C)(C)NC(=O)[C@H](Cc2c[nH]cn2)NC(=O)OC)[C@@H](C)O)[C@@H](C)O)C(=S)NC(CCCc2ccccc2F)C(N)=O)cc1` (stereo partly drawn) [compound 172] (Moc-H[Aib]QGT[ξαMePhe(2-F)]TS-X9), the “Human Glucagon receptor antagonistic activity shown as inhibition of cAMP production of Glucagon peptide” value in assay [3] (1 nM test compound) is reported as 4 ± 0.16 pmol/ml/μg prt; in assay [3] (10 nM test compound), 2 ± 0.11 pmol/ml/μg prt; in assay [3] (100 nM test compound), 0 pmol/ml/μg prt; in assay [3] (1 μM test compound), 0 pmol/ml/μg prt; in assay [3] (10 μM test compound) it was 0 pmol/ml/μg prt.
As to `CCc1cc(OC)ccc1-c1ccc(CC(NC(=S)[C@H](CC(=O)O)NC(=O)[C@H](CO)NC(=O)[C@@H](NC(=O)C(C)(Cc2ccccc2F)NC(=O)[C@@H](NC(=O)CNC(=O)[C@H](CCC(N)=O)NC(=O)C(C)(C)NC(=O)[C@@H](N)Cc2c[nH]cn2)[C@H](C)O)[C@H](C)O)C(=S)NC(CCCc2ccccc2)C(N)=O)cc1` (stereo partly drawn) [compound 177] (H-H[Aib]QG[aThr][ξαMePhe(2-F)][aThr]S-X8), the “Human Glucagon receptor antagonistic activity shown as inhibition of cAMP production of Glucagon peptide” value in assay [3] (1 nM test compound), in assay [3] (10 nM test compound), in assay [3] (100 nM test compound), in assay [3] (1 μM test compound) and in assay [3] (10 μM test compound) was 0 pmol/ml/μg prt throughout.
Turning to `CCc1cc(OC)ccc1-c1ccc(CC(CNC(CCCc2ccccc2)C(N)=O)NC(=O)[C@H](CC(=O)O)NC(=O)[C@H](CO)NC(=O)[C@@H](NC(=O)C(C)(Cc2ccccc2F)NC(=O)[C@@H](NC(=O)CNC(=O)[C@H](CCC(N)=O)NC(=O)C(C)(C)NC(=O)[C@@H](N)Cc2c[nH]cn2)[C@H](C)O)[C@H](C)O)cc1` (stereo partly drawn) [compound 189] (H-H[Aib]QG[aThr][ξαMePhe(2-F)][aThr]SD-X7), the “Human Glucagon receptor antagonistic activity shown as inhibition of cAMP production of Glucagon peptide” value in assay [3] (1 nM test compound) came to 3 ± 0.12 pmol/ml/μg prt; in assay [3] (10 nM test compound) it was 1 ± 0.12 pmol/ml/μg prt; in assay [3] (100 nM test compound), 0 pmol/ml/μg prt; in assay [3] (1 μM test compound), 0 pmol/ml/μg prt; in assay [3] (10 μM test compound), 0 pmol/ml/μg prt.
As to `CCc1cc(OC)ccc1-c1ccc(CC(CNC(CCCc2ccccc2F)C(N)=O)NC(=O)[C@H](CC(=O)O)NC(=O)[C@H](CO)NC(=O)[C@@H](NC(=O)C(C)(Cc2ccccc2F)NC(=O)[C@@H](NC(=O)CNC(=O)[C@H](CCC(N)=O)NC(=O)C(C)(C)NC(=O)[C@@H](N)Cc2c[nH]cn2)[C@H](C)O)[C@H](C)O)cc1` (stereo partly drawn) [compound 191] (H-H[Aib]QG[aThr][ξαMePhe(2-F)][aThr]SD-X4), the “Human Glucagon receptor antagonistic activity shown as inhibition of cAMP production of Glucagon peptide” value is on record as 4 ± 0.05 pmol/ml/μg prt in assay [3] (1 nM test compound); 2 ± 0.13 pmol/ml/μg prt in assay [3] (10 nM test compound); 2 ± 0.12 pmol/ml/μg prt in assay [3] (100 nM test compound); 0 pmol/ml/μg prt in assay [3] (1 μM test compound); 0 pmol/ml/μg prt in assay [3] (10 μM test compound).
